Like-named read-outs stand apart in the source and are kept apart here. Where no end group is shown, it is not given here.
Legend:
[1] = tested on: N-terminally gluconoyl-labelled Beltide-1 derivative peptide PP6; experiment: Boron-containing reagents to modulate reversibility (heat-accelerated deacylation); assay type: physicochemical; settings: 5 mM additive, 50 μM peptide; for Remaining gluconoyl-label, pH 7.5 after 15 h at 50° C.: 50 mM HEPES/NaOH buffer; for Remaining gluconoyl-label, pH 6.8 after 15 h at 50° C.: 50 mM phosphate/KOH buffer
Experimental: To explore the reversibility modulating effect of various boron-containing molecules, a small library of reagents was tested at pH 7.5 (50 mM HEPES/NaOH buffer) and pH 6.8 (50 mM phosphate/KOH buffer).
Reaction supplemented with 5 mM of additive; calculated as the ratio of the TIC for the labelled divided by the sum of TICs of both labelled and unlabeled species.

[2] = tested on: GDL acylated G-H6-Beltide-1; experiment: Effect of copper ions on reversibility of acylation; assay type: physicochemical; settings: various CuSO4 concentrations, pH 7.5, 37° C.
Experimental: FIG. 3: Reversibility of GDL:G-H6-Beltide-1 in the presence of various CuSO4 and EDTA concentrations at pH 7.5. GDL acylated G-H6-Beltide-1 was produced as before, extra GDL was removed by C18 reverse phase purification and the acylated peptide (20 μM) was stored in 50 mM HEPES (NaOH) buffer supplemented with various concentrations of CuSO4 and EDTA at 37° C. Change in acylation status was monitored by MALDI-TOF MS TIC and is reported as the relative m/z ratio of the acylated (m1) and non-acylated species (m2) ([m1/z/(m1/z+m2/z)]*100%).
1 mM G-H6-Beltide-1 (˜1 mg of peptide) was acylated with 100 mM GDL in 200 mM HEPES (NaOH) pH 7.5 for 1 h at room temperature in a total volume of ˜300 μL. Upon addition of buffer to peptide but before addition of GDL, precipitation was clearly observed. This precipitation may be due to the theoretical pI of G-H6-Beltide-1 being close to pH 7.5, or because G-H6-Beltide-1 is a Beltide-1 variant. Beltide-1 is known to form nanodiscs in solution upon contact with membrane proteins or lipid components (Midtgaard et al. 2014; Martos-Maldonado et al. 2018). GDL was added to 100 mM from a freshly prepared 1 M stock solution. The solution remained cloudy. […] The acylated peptide was analyzed by MALDI-MS and initial acylation extent was estimated to be ˜96%, stored at −20° C. until further usage. […]

[3] = tested on: GDL-acylated GSS-H6-Beltide-1 peptide; experiment: Effect of nickel ions on reversibility of acylation; assay type: physicochemical; settings: 0.01-1 mM NiSO4, pH 7.5, 37° C., up to day 7
Experimental: GSS-H6-Beltide-1 peptide was GDL-acylated and extra GDL was removed via C18 SepPack chromatography. GDL-acylated peptide was dissolved in 100 mM HEPES (NaOH), pH 7.5, 10% ACN (v/v) to a final concentration of ˜100 μM and aliquoted into 0.5 mL LoBind (Eppendorf) microcentrifuge tubes. NiSO4 was supplemented to 0, 0.01, 0.1, and 1 mM final concentration from a 100 mM NiSO4 stock in H2O. A control sample was supplemented with a pre-mixed solution of NiSO4 and EDTA, to give a final concentration of 1 mM NiSO4 and 5 mM EDTA [stock solution 10 mM NiSO4 and 50 mM EDTA (NaOH neutralized)]. The samples (50 μL volume each) were kept in a water bath at 37° C. Aliquots of 2 μL were taken on day 1, 3, 5, and 7, mixed with 10 μL of 5% acetic acid, purified by C18 ZipTip chromatography and analyzed by MALDI-TOF-MS instrumentation.

[4] = tested on: GDL-acylated GSS-H6-Beltide-1 peptide; experiment: Effect of zinc ions on reversibility of acylation; assay type: physicochemical; settings: day 7
Experimental: GSS-H6-Beltide-1 peptide was GDL-acylated and extra GDL was removed via C18 SepPack chromatography. GDL:peptide was dissolved in 100 mM HEPES (NaOH), pH 7.5 with or without ZnSO4 (0.2 mM and 2 mM) to a final concentration of ˜100 μM. ACN was added to 10% v/v to reduce possible nanodisc formation and precipitation of the peptide to the plastic microcentrifuge wall. The reaction mixtures (100 μL volume each) were kept in a water bath at 37° C. Aliquots of 2 μL were taken at day 3, mixed with 10 μL of 5% acetic acid, purified by C18 ZipTip chromatography and analyzed by MALDI-TOF-MS instrumentation. […] The remaining reaction mixture (80 μL) was acidified by adding 50% (v/v) acetic acid. The amount of acetic acid to be added was calculated as 20% of the remaining reaction volume [final concentration 7.57% acetic acid v/v]. Likewise, 10% reaction volume of 100% acetonitrile were added (final concentration acetonitrile ˜16.6% v/v) and the reaction was mixed by quick vortexing. Of this mixture, 15 μL aliquots were processed via C18 ZipTip chromatography and analyzed by MALDI-TOF-MS instrumentation. We speculate that the peptide had bound to the microcentrifuge wall and assumed that the precipitation affected both acylated and non-acylated species equally.

[5] = tested on: 6-AGDL acylated GSS-H6-Beltide-1
Experimental: The volume was then made up to 15 mL to give a 1 M stock solution.
pH 6 buffer was made by preparing a 1 M stock solution of citric acid monohydrate and by making a solution of 1 M sodium citrate dihydrate. The two solutions were mixed to give a 1 M stock solution of pH 6.
pH 7.5 buffer was made by mixing a 1 M stock solution of potassium phosphate monobasic with 1 M solution of potassium phosphate dibasic to give a pH of 7.5.
pH 8.8 buffer was prepared by titrating 1 M solution of acetic acid with ammonium solution to give pH 8.8.
20 μM 6-AGDL modified peptide was stored in 100 μL aliquots in 200 mM buffer as indicated. The vials (triplicates) were incubated in a 37° C. water bath throughout the experiment and were retrieved for sample acquisition for <30 mins at room temperature before they were returned to the water bath.
10 μL of subsamples for pH 4, 6 and 8.8 were acidified with 5 μL of 20% (v/v) acetic acid and subjected to C18 ZipTip purification. Samples were analyzed in positive reflectron mode with MALDI-TOF MS.
pH 7.5 samples were stored in the presence of 10% ACN (v/v) to counteract precipitation. For pH 7.5 samples, 15 μL aliquots were taken for each time point and desalted using 0.1% TFA-70% ACN/0.1% TFA C18 Zip-Tip procedure. 0.5 μL of the Eluate was mixed 1:1 with C1CCA matrix mixture and spotted onto a MALDI steel target prior to detection in reflector positive mode MALDI-TOF MS.

serine protease trypsin = settings: 50 mM boric acid
[6] = Reversibility of 6-AGDL acylated G-H6 and non-His-tagged peptides; assay type: physicochemical; settings: 6-AGDL acylated peptide, 14 days at room temperature, 1M HEPES pH 7.5
Experimental: 100 μM of G-H6-Beltide-1, GGKWSKR-Beltide-1 and GGTYSDH-Beltide-1 peptides were reacted at 4° C. with 6-AGDL in 1M HEPES, pH 7.5 by sequentially adding 100 mM 6-AGDL twice in 3 h intervals. Extra 6-AGDL was not removed, and the samples were stored at room temperature throughout the experiment.
2 μL from each sample were taken at each time point except for day 14. 10 μL of 2% acetic acid was added to each timepoint sample and the mixtures were desalted by C18 ZipTip chromatography. Eluate was analyzed by MALDI-TOF MS as before.
At day 14 the remaining samples underwent recovery procedure where all of the reaction mixtures were acidified by adding 20% of reaction volume of 50% (v/v) acetic acid [final concentration 7.57% acetic acid (v/v)] and then adding 10% reaction volume of 100% acetonitrile [final concentration ACN […]]. Of this mixture, 15 μL aliquots were taken, cleaned by ZipTip C18 Chromatography and analyzed by MALDI-TOF-MS instrumentation.

Pseudovirus = experiment: Pseudovirion neutralization assay; assay type: cell-based, SARS-CoV-2; settings: mice sera day 42, after a total of 3 immunizations
Experimental: The conjugate material was then used to immunize mice at 10 μg per dose formulated in AddaVax (Invivogen) according to the manufacturer on Day 0. Boosts with the same dose and formulation were performed on day 14 and day 28. Sera samples were taken before each immunization for immunological studies. Animals were sacrificed on day 42.
Pseudovirion neutralization assays were performed with samples obtained at day 42 according to standard procedures known in the art.

[7] = tested on: non-activated HEK-produced RBD; experiment: Endpoint anti-RBD ELISA of sera of immunized mice; set-up: species or system SARS-CoV-2; settings: in vivo

## O=Cc1ccccc1B(O)O [2-formylphenylboronic acid]
[1]
  Remaining gluconoyl-label, pH 7.5 after 15 h at 50° C.: ~99%
  Remaining gluconoyl-label, pH 6.8 after 15 h at 50° C.: ~95%

## O=Cc1ccc(B(O)O)cc1 [4-formylphenylboronic acid]
[1]
  Remaining gluconoyl-label, pH 7.5 after 15 h at 50° C.: ~95%
  Remaining gluconoyl-label, pH 6.8 after 15 h at 50° C.: ~46%

## O=S(=O)([O-])[O-].[Cu+2] [CuSO4]
[2]
  rate of reversibility: decreasing rate of reversibility as a function of increasing CuSO4 concentration

## O=S(=O)([O-])[O-].[Ni+2] [NiSO4]
[3]
  reversibility of acylation: seemingly abolished reversibility

## O=S(=O)([O-])[O-].[Zn+2] [ZnSO4]
[4]; 0.2 mM ZnSO4, pH 7.5, 37° C.
  remaining gluconoylation: ~80%
[4]; 2 mM ZnSO4, pH 7.5, 37° C.
  remaining gluconoylation: ~75%

## OB(O)O [boric acid, Boric acid]
[5]; >50 mM boric acid, pH 8.8, 7 days, 37° C.
  reversibility of acylation: effectively inhibited
[5]; pH 4, 37° C.
  reversibility of acylation: no effect was observed
[5]; pH 6, 37° C.
  reversibility of acylation: modulated the reversibility
Serine protease trypsin
  inhibition of trypsin: did not measurably inhibit
[1]
  Remaining gluconoyl-label, pH 7.5 after 15 h at 50° C.: ~69%
  Remaining gluconoyl-label, pH 6.8 after 15 h at 50° C.: ~8%

## CB(O)O [methylboronic acid]
[1]
  Remaining gluconoyl-label, pH 7.5 after 15 h at 50° C.: ~59%
  Remaining gluconoyl-label, pH 6.8 after 15 h at 50° C.: ~6%

## OB(O)c1ccccc1 [phenylboronic acid]
[1]
  Remaining gluconoyl-label, pH 7.5 after 15 h at 50° C.: ~83%
  Remaining gluconoyl-label, pH 6.8 after 15 h at 50° C.: ~31%

## OB1OCc2cc(F)ccc21 [tavaborole, 5-Fluoro-1,3-dihydro-1-hydroxy-2,1-benzoxaborole]
[1]
  Remaining gluconoyl-label, pH 7.5 after 15 h at 50° C.: ~87%
  Remaining gluconoyl-label, pH 6.8 after 15 h at 50° C.: ~87.9%

## GGKWSKRDWLKAFYDKVAEKLKEAF [GGKWSKR-Beltide-1]
[6]
  remaining acylation: ~64%

## GGTYSDHDWLKAFYDKVAEKLKEAF [GGTYSDH-Beltide-1]
[6]
  remaining acylation: 75%

## GHHHHHHDWLKAFYDKVAEKLKEAF [PP1]
[6]
  remaining acylation: 27%

## Qbeta: Qbeta VLPs (SEQ ID NO: 86) produced in E. coli
Pseudovirus
  % of neutralization at dilution 1:300: 17.24%
[7]
  anti-RBD response (ELISA titers) after a single injection: did not show a measurable response

— patent US20230212216A1, “SYNTHESIS OF LACTONE DERIVATIVES AND THEIR USE IN THE MODIFICATION OF PROTEINS” (priority 2019, published 2023)
